# Laboratory results published in patent US20110123483A1, “HMGB1 FOR CANCER TREATMENT” (DEUTSCHES KREBSFORSCHUNGSZENTRUM, priority 2009, published 2011).
# Tests used:
# U251MG glioma cells = test: Subcellular fractionation after iodine-125 labelled rhHMGB1; immunofluorescence colocalization; type: cell-based, human; settings: 40 nM for 24 h (FIG. 8B)
# Procedure: U251 cells were seeded on 10 cm culture dishes. […], 4 h, 16 h and 24 h, the cells were detached carefully by incubation with cell dissociation buffer (30 min) in order to protect possible surface proteinreceptor-complexes, harvested, and subjected to subcellular fractionation using the ApoAlert Fractionation Kit as described below (the plasma membrane fraction was extracted from the cytoplasmatic fraction by a last centrifugation step of 400.000×g for 15 min at 4° C.). Successful fractionation was confirmed by western blot. Successful coupling of the HMGB1-tyrosine residues with I-125 was shown by the high radioactivity in the protein fraction of sephadex G25 gel filtration (early eluates). Fraction 4 was used for the incubation of cells with I-125-HMGB1. For radioactivity measurements cells were solubilized in 0.5M NaOH and mixed with 10 ml LSC cocktail (Ultima Gold, Perkin Elmer, Waltham Mass.). The radioactivity of each subcellular fraction was measured in a liquid scintillation counter (Packard TriCarb 2900, Meriden, Ill.) by using the Compton effect.
# Enrichment of mitochondrial fractions was performed using the ApoAlert Cell Fractionation Kit (Clontech, Mountain View, Calif.) as described previously (Gdynia et al., 2008). […]
# [1] = tested on: NCH421 K glioblastoma stem-cell-like cells; test: Cell morphology / spheroid cell aggregates; type: cell-based; settings: FIG. 12B
# U251MG cells = test: Megamitochondria formation, COX IV immunofluorescence and electron microscopy; type: cell-based, human
# Procedure: U251MG cells were plated onto 8 well chamber-slides (Nunc, Wiesbaden, Germany) or grown confluently in 6 cm culture dishes containing round glass cover plates. For some samples, the cells were stained with the fluorescent dye MitoTracker Red CMXRos (50 nM, Molecular Probes, Invitrogen, Karlsruhe, Germany) for 30 min at 37° C. 24 h after seeding, the cells were fixed for 15 min with 2% paraformaldehyde solution or pre-cooled 100% methanol (on ice), washed 3× with PBS, permeabilized on ice with PBS containing 0.2% TritonX-100 and 1% fetal calf serum for 5 min and washed again three times with PBS containing 1% or 5% FCS. After blocking with PBS containing 1% or 5% FCS at room temperature for 60 min, permeabilized cells were incubated with monoclonal rabbit fluoro-conjugated anti-COX IV antibody (1:10, 3E11, Alexa Fluor 488 conjugate, Cell Signaling) or monoclonal mouse anti-polyhis-tag antibody (1:1000, R&D Systems) for 30 min at 4° C. and then washed three times with PBS with 1% or 5% FCS. In case the primary antibody was unconjugated to a fluorescent dye, goat anti-mouse or anti-rabbit secondary antibody Alexa Fluor® 488 or […] (1:200, Invitrogen GmbH, Karlsruhe, Germany) together with 1 μg/ml 4′,6-Diamidino-2-phenylindol (DAPI) was added for 30 min at 4° C. in a dark chamber. After washing three times with PBS with 1% or 5% FCS, cells were covered with cover slips. Photomicrographs were taken using a Olympus VANOX-T (AH-2) fluorescence microscope with immersion oil, ne 23=1.518 and the Soft Imaging System AnalysisB software (Leica Microsystems, Wetzlar, Germany) or on a confocal microscope (Leica SP2).
# Cells were fixed in situ with 2.3% glutaraldehyde in 50 mM sodium cacodylat (pH 7.2) for 30 min at 4° C., scraped from the plates, collected by low-speed centrifugation at 200×g for 10 min at 4° C. and successively stained with 2% osmium tetroxide and 0.5% uranyl acetate. After dehydration and embedding in Epru the probes were processed for ultrathin section. Micrographs were taken with a Zeiss EM-10A electron microscope at 80 kV. The magnification indicator was routinely controlled by the use of a grating replica.
# [2] = tested on: NCH421 K glioblastoma stem-cell-like cells; test: Trypan blue vital stain, counting blue cells in a Neubauer chamber; type: cell-based; settings: 80 nM, 24 h, p<0.05
# Procedure: Trypan blue influx into NCH421 K glioblastoma multiforme stem-cell-like cells was […] culture flasks and then incubating them for 10 min with 1:1,000 trypan blue solution. […] Glioblastoma stem-cell-like cell line NCH421K was maintained in BIT (bovine serum albumine, insulin, transferring)-medium (DMEM HAMS F12+1% P/S+1% L-glutamin+10 ml BIT+EGF (20 ng/ml)+BFGF (20 ng/ml)).
# mitochondrial DNA = test: Dot blot analysis of mitochondrial DNA; type: cell-based, human; settings: 24 h (FIG. 11A)
# Procedure: Subcellular fractionation was performed as described below. The DNA of the resulting mitochondrial suspension was purified by a modified method described in Almeida et al. (Almeida et al., 2006). Briefly, contaminating nuclear DNA was precipitated by lysis of the mitochondria in a buffer of 50 mM glucose, 1.5 mM EDTA, 25 mM Tris-HCl, pH 7.4 with 20% SDS and 3 M K-acetate. After centrifugation (10 min, 4° C., 10.000×g) the supernatant was digested with 20 mg/ml proteinase K for 1 h at 37° C. and mtDNA was extracted twice with phenol-chloroform and one additional time with chloroform, followed by precipitation of mtDNA from the aqueous phase by adding two volumes of isopropanol. The pellet was washed with 80% ethanol at −20° C. After drying the mtDNA was solved in TE-buffer (10 mM Tris-HCl, pH 7.4, 1 mM EDTA, pH 8.0). After treatment of the samples with 100 μg/ml ribonuclease A (RNAse A) for 1 h at 37° C., the phenol-chloroform extraction steps were repeated and mtDNA was precipitated by adding 2 volumes of 100% ethanol and 1/10 volume 5 M NaCl at −20° C. overnight. After a centrifugation step for 20 min at 4° C. with 13,000 rpm and washing the pellet 2× with 80% ethanol, followed by drying, the pellet was solved in ddH2O. The purified DNA was digested overnight with BamHI and loaded on a 0.5% agarose gel. […] Labeling efficiency was determined as described in the kit. […]
substance,measurement,setting,value
rhHMGB1: recombinant human High Mobility Group B1 protein (Sigma Aldrich),"mitochondrial localization, co-staining with mitochondrial marker (MitoTracker)",U251MG glioma cells,confirmed
same,"anti-proliferative effect, spheroid cell aggregates",[1],clearly smaller and fewer spheroid cell aggregates
same,"formation of megamitochondria, COX IV immunofluorescence",U251MG cells; FIG. 8C,generation of extremely enlarged spherical mitochondria
same,"autophagosomes or rupture of the outer cell membrane, electron microscopy",U251MG cells; FIG. 10,not observed
same,"number and size of megamitochondria, electron microscopy",U251MG cells; FIG. 10,increased in a time- and concentration-dependent manner
same,"typical morphological features of apoptosis (membrane blebbing, apoptotic bodies, chromatin condensation)",U251MG cells; after rhHMGB1 treatment,could not be detected
same,trypan blue influx versus control,[2],7±1 fold increase
same,mitochondrial DNA content,mitochondrial DNA,substantial and rapid depletion of mtDNA
